Data reported in PMC11676667, “Pharmacokinetics of Oral Cannabinoid Δ8-Tetrahydrocannabivarin and Its Main Metabolites in Healthy Participants” (Pharmaceuticals, 2024).
Like-named read-outs stand apart in the source and are kept apart here.

Experiment: Plasma pharmacokinetics after single oral dose of Δ8-THCV in MCT oil (LC-MS/MS, non-compartmental analysis)
Type: in vivo, human
Details: for concentration at 0.5 h / concentration at 1 h / concentration at 2 h / concentration at 4 h / concentration at 6 h / concentration at 8 h / AUC(0-t) / Cmax / MRT / Tmax: human; for concentration at 0.5 h / concentration at 1 h / concentration at 2 h / concentration at 4 h / concentration at 6 h / concentration at 8 h: oral; for AUC(0-t) / Cmax / MRT / Tmax: po; for MRT: read-out: MRT (mean residence time)
Outline: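 Healthy participants received single oral Δ8-THCV in MCT oil (50 mg/mL; 12.5-200 mg, or placebo) after a high-fat, high-calorie breakfast, with ≥1-week washout. Plasma (K2EDTA) sampled predose and 0.5-8 h post-dose, assayed by validated LC-MS/MS including metabolites; PK by non-compartmental analysis, sub-LLOQ values set to 0.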

[1] = plasma, 100 mg, 100 mg Δ8-THCV dose, Mean (SD, %CV)
[2] = plasma, 100 mg, 100 mg Δ8-THCV dose, Median (IQ Range)
[3] = plasma, 200 mg, 200 mg Δ8-THCV dose, Mean (SD, %CV)
[4] = plasma, 200 mg, 200 mg Δ8-THCV dose, Median (IQ Range)
[5] = plasma, 12.5 mg, 12.5 mg single oral Δ8-THCV in MCT oil, Mean (±SD)
[6] = plasma, 12.5 mg, 12.5 mg single oral Δ8-THCV in MCT oil, Median (Range)
[7] = plasma, 25 mg, 25 mg single oral Δ8-THCV in MCT oil, Mean (±SD)
[8] = plasma, 25 mg, 25 mg single oral Δ8-THCV in MCT oil, Median (Range)
[9] = plasma, 50 mg, 50 mg single oral Δ8-THCV in MCT oil, Mean (±SD)
[10] = plasma, 50 mg, 50 mg single oral Δ8-THCV in MCT oil, Median (Range)
[11] = plasma, 100 mg, 100 mg single oral Δ8-THCV in MCT oil, Mean (±SD)
[12] = plasma, 100 mg, 100 mg single oral Δ8-THCV in MCT oil, Median (Range)
[13] = plasma, 200 mg, 200 mg single oral Δ8-THCV in MCT oil, Mean (±SD)
[14] = plasma, 200 mg, 200 mg single oral Δ8-THCV in MCT oil, Median (Range)

## CCCc1cc(O)c2c(c1)OC(C)(C)[C@@H]1CC=C(C)C[C@@H]21 [Δ8-THCV, Δ8-tetrahydrocannabivarin]
[1]
  concentration at 0.5 h: 0.2 ng/mL
  concentration at 1 h: 4.2 ng/mL
  concentration at 2 h: 7.1 ng/mL
  concentration at 4 h: 11.4 ng/mL
  concentration at 6 h: 12.3 ng/mL
  concentration at 8 h: 4.1 ng/mL
[2]
  concentration at 0.5 h: 0 ng/mL
  concentration at 1 h: 2.1 ng/mL
  concentration at 2 h: 5.5 ng/mL
  concentration at 4 h: 7.3 ng/mL
  concentration at 6 h: 7.7 ng/mL
  concentration at 8 h: 3.1 ng/mL
[3]
  concentration at 0.5 h: 0.1 ng/mL
  concentration at 1 h: 3.6 ng/mL
  concentration at 2 h: 21.4 ng/mL
  concentration at 4 h: 29.4 ng/mL
  concentration at 6 h: 26.6 ng/mL
  concentration at 8 h: 21.2 ng/mL
[4]
  concentration at 0.5 h: 0 ng/mL
  concentration at 1 h: 2 ng/mL
  concentration at 2 h: 14.3 ng/mL
  concentration at 4 h: 33.3 ng/mL
  concentration at 6 h: 21.8 ng/mL
  concentration at 8 h: 13.4 ng/mL
[5]
  AUC(0-t): 3.5 ng·h/mL
  Cmax: 1.6 ng/mL
[6]
  AUC(0-t): 2.1 ng·h/mL
  Cmax: 1.1 ng/mL
plasma, 12.5 mg, 12.5 mg single oral Δ8-THCV in MCT oil, plasma, Mean (±SD)
  MRT: 4 h
plasma, 12.5 mg, 12.5 mg single oral Δ8-THCV in MCT oil, plasma, Mean (±SD), read-out: tmax
  Tmax: 3.9 h
plasma, 12.5 mg, 12.5 mg single oral Δ8-THCV in MCT oil, plasma, Median (Range)
  MRT: 4 h
plasma, 12.5 mg, 12.5 mg single oral Δ8-THCV in MCT oil, plasma, Median (Range), read-out: tmax
  Tmax: 4 h
[7]
  AUC(0-t): 7.4 ng·h/mL
  Cmax: 2.6 ng/mL
[8]
  AUC(0-t): 5.2 ng·h/mL
  Cmax: 2.1 ng/mL
plasma, 25 mg, 25 mg single oral Δ8-THCV in MCT oil, plasma, Mean (±SD)
  MRT: 4.1 h
plasma, 25 mg, 25 mg single oral Δ8-THCV in MCT oil, plasma, Mean (±SD), read-out: tmax
  Tmax: 3.8 h
plasma, 25 mg, 25 mg single oral Δ8-THCV in MCT oil, plasma, Median (Range)
  MRT: 4.2 h
plasma, 25 mg, 25 mg single oral Δ8-THCV in MCT oil, plasma, Median (Range), read-out: tmax
  Tmax: 4 h
[9]
  AUC(0-t): 27.3 ng·h/mL
  Cmax: 10 ng/mL
[10]
  AUC(0-t): 24.9 ng·h/mL
  Cmax: 10 ng/mL
plasma, 50 mg, 50 mg single oral Δ8-THCV in MCT oil, plasma, Mean (±SD)
  MRT: 5.2 h
plasma, 50 mg, 50 mg single oral Δ8-THCV in MCT oil, plasma, Mean (±SD), read-out: tmax
  Tmax: 5 h
plasma, 50 mg, 50 mg single oral Δ8-THCV in MCT oil, plasma, Median (Range)
  MRT: 5.4 h
plasma, 50 mg, 50 mg single oral Δ8-THCV in MCT oil, plasma, Median (Range), read-out: tmax
  Tmax: 6 h
[11]
  AUC(0-t): 65.5 ng·h/mL
  Cmax: 21.5 ng/mL
[12]
  AUC(0-t): 58.4 ng·h/mL
  Cmax: 22 ng/mL
plasma, 100 mg, 100 mg single oral Δ8-THCV in MCT oil, plasma, Mean (±SD)
  MRT: 4.5 h
plasma, 100 mg, 100 mg single oral Δ8-THCV in MCT oil, plasma, Mean (±SD), read-out: tmax
  Tmax: 4.2 h
plasma, 100 mg, 100 mg single oral Δ8-THCV in MCT oil, plasma, Median (Range)
  MRT: 4.1 h
plasma, 100 mg, 100 mg single oral Δ8-THCV in MCT oil, plasma, Median (Range), read-out: tmax
  Tmax: 4 h
[13]
  AUC(0-t): 168 ng·h/mL
  Cmax: 52.9 ng/mL
[14]
  AUC(0-t): 165 ng·h/mL
  Cmax: 51.7 ng/mL
plasma, 200 mg, 200 mg single oral Δ8-THCV in MCT oil, plasma, Mean (±SD)
  MRT: 4.7 h
plasma, 200 mg, 200 mg single oral Δ8-THCV in MCT oil, plasma, Mean (±SD), read-out: tmax
  Tmax: 4.7 h
plasma, 200 mg, 200 mg single oral Δ8-THCV in MCT oil, plasma, Median (Range)
  MRT: 4.7 h
plasma, 200 mg, 200 mg single oral Δ8-THCV in MCT oil, plasma, Median (Range), read-out: tmax
  Tmax: 4 h
plasma, across oral Δ8-THCV doses 12.5-200 mg, plasma, read-out: median time-to-maximum concentration (tmax), range across doses
  Tmax: 3.8 to 5 h
Of 504 plasma samples from 15 participants after oral Δ8-THCV
  number of positive plasma samples: 236
One subject after oral Δ8-THCV in MCT oil, Figure A1
  concentration in representative plasma sample: 69.8 ng/mL
Oral Δ8-THCV 12.5-200 mg, plasma
  increase of median AUClast every two-fold increase in the dose: 2.3- to 4.8 fold
Oral Δ8-THCV, plasma
  tmax later after doses greater than 50 mg compared to the 12.5 mg and 25 mg doses: 1.3 fold
